Where “and” joins values, the source holds several entries; their conditions need not be identical. Equal values may be shown once.
System: 994946-033-R-J1-PDC complex spheroid viability
Assay: Anticancer human tumor 994946-033-R-J1-PDC patient-derived melanoma cell line growth inhibition [POLQ]
Settings: for viability, T/C: stronger effect = lower value
Method: Multicellular complex tumor spheroid response to Polymerase (POL) inhibitors (novobiocin, ART-558, RP6685) in combination with a variety of drugs and investigational agents in selected tumor cell lines
The POL inhibitors (novobiocin, ART-558, and RP6685) were evaluated both individually and in combination with standard of care and investigational anticancer small molecules within a complex spheroid model of solid tumors. . Complex spheroids include a stromal component modeled by human endothelial cells (HUVEC) and fibroblasts modeled by human mesenchymal stem cells (MSCs). The concentration ranges selected for each drug and investigational agent were based upon clinically achievable concentrations if the clinical Cmax of the agent was known.
Compounds. The drugs and investigational agents: novobiocin (NSC847541), ART-558 (NSC835418), RP-6685 (NSC848927), peposertib (NSC802822), ceralasertib (NSC780249), elimusertib (NSC800525), camonsertib (NSC841442), AZD-1390 (NSC803789), olaparib (NSC753686), talazoparib (NSC767125), rucaparib (NSC756644), sotorasib (NSC818433), MRTX-1133 (NSC836407), SN-38 (NSC673596), topotecan (NSC609699), epotoside (NSC141540), doxorubicin (NSC123127), gemcitabine (NSC613327), 5-fluorouracil (NSC19893), paclitaxel (NSC125973), vemurafenib (NSC761431), MSA-2 (NSC828583), SN-011 (NSC837082), adavosertib (NSC754352), prexasertib (NSC758257), carboplatin (NSC241240) and oxaliplatin (NSC266046), were obtained from the National Cancer Institute (NCI) Developmental Therapeutics Program Chemical Repository (21). The FDA-approved anticancer drug set is available from the Developmental Therapeutics Program at https://dtp.cancer.gov/organization/dscb/obtaining/. […] The stock solutions were prepared in dimethyl sulfoxide (DMSO, Sigma-Aldrich, St. Louis, MO, cat. D2650), except for the platinum compounds which were prepared in saline (Quality Biological, Gaithersburg, MD, cat. 114-055-101), at 800-fold the tested concentration and stored at -70 degrees C prior to their use. All drugs and investigational agents were tested over a range starting from a high concentration at or near the clinical Cmax and decreasing in half-log increments. If the clinical Cmax for an agent had not been determined, the highest concentration tested was 10 microM, except for SN-38, which was tested at a high concentration of 1 microM.
Cell Culture. All cells were maintained in an incubator at 37 degrees C and 5% CO2 with 95% humidity. The PDC lines were cultured according to standard operating procedures established by the NCI PDMR (https://pdmr.cancer.gov). Table 3 of the manuscript, lists the cell lines along with the number of the three cell types plated to form the mct-spheroids and media for tumor cell growth. After thawing, all PDC lines, except 997537-175-T-J1-PDC and 415267-285-R-J2-PDC, were cultured in Matrigel-coated flasks prepared with a working solution of 1X Ham's F-12 nutrient mix, without supplementation (Thermo Fisher Scientific, cat. 11765054), 100 U/mL penicillin-streptomycin (Thermo Fisher Scientific, cat. 15140122), and 2.5% Matrigel (Corning Inc., Corning, NY, cat. 354248) for the first three passages. The two PDC lines 997537-175-T-J1-PDC and 415267-285-R-J2-PDC were cultured on uncoated flasks. The 857933-349-R-J2-PDC line was cultured in 6C/Colon 1B media containing advanced DMEM/F-12 (Thermo Fisher Scientific, cat. 12634028), 10 mM HEPES (Thermo Fisher Scientific, cat. 15630080), 1X GlutaMAX supplement (Thermo Fisher Scientific, cat. 35050061), 0.1 mg/mL primocin (InvivoGen, San Diego, CA, cat. ant-pm-2), 10% defined fetal bovine serum, heat inactivated (HyClone Laboratories Inc., Logan, UT, cat. SH30070.03HI), 50% L-WRN conditioned media (ATCC, cat. CRL-3276), 1.25 mM N-Acetyl-L-cysteine (Sigma-Aldrich, cat. A9165), 10 mM nicotinamide (Sigma-Aldrich, cat. N0636), 1X B-27 supplement (Thermo Fisher Scientific, cat. 17504044), 1X N-2 supplement (Thermo Fisher Scientific, cat. […]
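Further: spheroids exposed to drugs for 7 days.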
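Wherever viability, T/C is given: 100% = DMSO vehicle treated spheroids.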

## C#Cc1c(F)ccc2cc(O)cc(-c3ncc4c(N5CC6CCC(C5)N6)nc(OCC56CCCN5CC(F)C6)nc4c3F)c12 (configuration not stated)
Compound 0.0316 µM
  viability, T/C: 78.6% and 88.4% and 92.6%
Compound 0.1 µM
  viability, T/C: 114% and 85.9% and 77.6%
Compound 0.316 µM
  viability, T/C: 100% and 90.5% and 92%
Compound 1 µM
  viability, T/C: 85.9% and 83.8% and 79.2%
Compound 3.16 µM
  viability, T/C: 77.8% and 81.5% and 90.7%
Compound 10 µM
  viability, T/C: 12.6% and 21.5% and 6.41%
Curve of compound
  IC50: 5.08 µM and 5.79 µM and 5.34 µM

## CCc1cc2c(N3CCc4c(cc(Cn5ccnc5)cc4-c4cn(C)nc4C(F)(F)F)C3=O)cc(C)nc2c(OC)n1
Compound 0.0316 µM
  viability, T/C: 79% and 66% and 74.7%
Compound 0.1 µM
  viability, T/C: 78.9% and 75.4% and 75.9%
Compound 0.316 µM
  viability, T/C: 90.3% and 75% and 87.3%
Compound 1 µM
  viability, T/C: 93.3% and 71.1% and 84.3%
Compound 3.16 µM
  viability, T/C: 74.8% and 70.8% and 89.7%
Compound 10 µM
  viability, T/C: 72% and 68.3% and 85.2%
Curve of compound
  IC50: > 10 µM

## O=c1[nH]cc(F)c(=O)[nH]1
Compound 0.0316 µM
  viability, T/C: 115% and 112% and 96.8%
Compound 0.1 µM
  viability, T/C: 95.1% and 107% and 103%
Compound 0.316 µM
  viability, T/C: 71.1% and 97.4% and 103%
Compound 1 µM
  viability, T/C: 63.1% and 67.9% and 60.2%
Compound 3.16 µM
  viability, T/C: 50.7% and 73.6% and 64%
Compound 10 µM
  viability, T/C: 45.7% and 47.6% and 54.8%
Curve of compound
  IC50: 4.22 µM and > 10 µM

## Nc1ccn(C2OC(CO)C(O)C2(F)F)c(=O)n1 (configuration not stated)
Compound 0.0316 µM
  viability, T/C: 26% and 34.1% and 24.7%
Compound 0.1 µM
  viability, T/C: 4.77% and 7.08% and 7.51%
Compound 0.316 µM
  viability, T/C: 5.46% and 6.51% and 7.23%
Compound 1 µM
  viability, T/C: 6.12% and 6.87% and 8.28%
Compound 3.16 µM
  viability, T/C: 4.43% and 9.96% and 4.73%
Compound 10 µM
  viability, T/C: 1.87% and 3.82% and 1.78%
Curve of compound
  IC50: < 0.0316 µM

## O=C(Nc1ccc(O)c(NS(=O)(=O)c2ccc(F)cc2)c1)c1ccc(-c2ccccc2)cc1 + COC1C(OC(N)=O)C(O)C(Oc2ccc3c(O)c(NC(=O)c4ccc(O)c(CC=C(C)C)c4)c(=O)oc3c2C)OC1(C)C
Curve of first compound, second compound 0.0316 µM
  IC50: 6.64 µM
Curve of first compound, second compound 0.1 µM
  IC50: 6.29 µM
Curve of first compound, second compound 0.316 µM
  IC50: 6.09 µM
Curve of first compound, second compound 1 µM
  IC50: 6.3 µM
Curve of first compound, second compound 3.16 µM
  IC50: 5.45 µM
Curve of first compound, second compound 10 µM
  IC50: 4.58 µM
Second compound 0.0316 µM, first compound 0.0316 µM
  viability, T/C: 87.9%
Second compound 0.0316 µM, first compound 0.1 µM
  viability, T/C: 103%
Second compound 0.0316 µM, first compound 0.316 µM
  viability, T/C: 101%
Second compound 0.0316 µM, first compound 1 µM
  viability, T/C: 111%
Second compound 0.0316 µM, first compound 3.16 µM
  viability, T/C: 93%
Second compound 0.0316 µM, first compound 10 µM
  viability, T/C: 25.9%
Second compound 0.1 µM, first compound 0.0316 µM
  viability, T/C: 96%
Second compound 0.1 µM, first compound 0.1 µM
  viability, T/C: 105%
Second compound 0.1 µM, first compound 0.316 µM
  viability, T/C: 80.2%
Second compound 0.1 µM, first compound 1 µM
  viability, T/C: 94.4%
Second compound 0.1 µM, first compound 3.16 µM
  viability, T/C: 82.6%
Second compound 0.1 µM, first compound 10 µM
  viability, T/C: 27.9%
Second compound 0.316 µM, first compound 0.0316 µM
  viability, T/C: 99%
Second compound 0.316 µM, first compound 0.1 µM
  viability, T/C: 123%
Second compound 0.316 µM, first compound 0.316 µM
  viability, T/C: 84.3%
Second compound 0.316 µM, first compound 1 µM
  viability, T/C: 87.3%
Second compound 0.316 µM, first compound 3.16 µM
  viability, T/C: 85.1%
Second compound 0.316 µM, first compound 10 µM
  viability, T/C: 27.6%
Second compound 1 µM, first compound 0.0316 µM
  viability, T/C: 100%
Second compound 1 µM, first compound 0.1 µM
  viability, T/C: 81.8%
Second compound 1 µM, first compound 0.316 µM
  viability, T/C: 109%
Second compound 1 µM, first compound 1 µM
  viability, T/C: 111%
Second compound 1 µM, first compound 3.16 µM
  viability, T/C: 78%
Second compound 1 µM, first compound 10 µM
  viability, T/C: 31.1%
Second compound 3.16 µM, first compound 0.0316 µM
  viability, T/C: 97.8%
Second compound 3.16 µM, first compound 0.1 µM
  viability, T/C: 103%
Second compound 3.16 µM, first compound 0.316 µM
  viability, T/C: 92.3%
Second compound 3.16 µM, first compound 1 µM
  viability, T/C: 83.5%
Second compound 3.16 µM, first compound 3.16 µM
  viability, T/C: 66.2%
Second compound 3.16 µM, first compound 10 µM
  viability, T/C: 32.4%
Second compound 10 µM, first compound 0.0316 µM
  viability, T/C: 82.2%
Second compound 10 µM, first compound 0.1 µM
  viability, T/C: 102%
Second compound 10 µM, first compound 0.316 µM
  viability, T/C: 84.5%
Second compound 10 µM, first compound 1 µM
  viability, T/C: 129%
Second compound 10 µM, first compound 3.16 µM
  viability, T/C: 60.1%
Second compound 10 µM, first compound 10 µM
  viability, T/C: 28.5%

## CC[C@@]1(O)C(=O)OCc2c1cc1n(c2=O)Cc2cc3c(CN(C)C)c(O)ccc3nc2-1
Compound 0.000316 µM
  viability, T/C: 86.1% and 53.9% and 105%
Compound 0.001 µM
  viability, T/C: 101% and 95.2% and 87.8%
Compound 0.00316 µM
  viability, T/C: 86.5% and 108% and 111%
Compound 0.01 µM
  viability, T/C: 71.5% and 74% and 68.2%
Compound 0.0316 µM
  viability, T/C: 28% and 52% and 41.7%
Compound 0.1 µM
  viability, T/C: 13.2% and 9.44% and 10.1%
Curve of compound
  IC50: 0.0176 µM and 0.0328 µM and 0.0221 µM
